Key:
HIV-1 (IIIb strain) = experiment: MTT method using MT-4 cells infected with HIV-1 (anti-HIV activity); type: cell-based; conditions: for EC50: MT-4 cells infected with HIV-1 IIIb, MTT, five days; for Selectivity Index (CC50/EC50): MT-4 cells
Description: (§1) 1) MTT Method Using MT-4 Cells
(§2) • 1. A test agent (100 μl) is diluted on a 96-well microplate. MT-4 cells infected with HIV-1 (IIIb strain; 100 TCID50) and non-infected MT-4 cells are added to the microplate such that the number of cells in each well becomes 10,000. The cells are cultured at 37° C. for five days. • 2. MTT (20 μl, 7.5 mg/ml) is added to each well, and the cells are further cultured for 2-3 hours. • 3. The cultured medium (120 μl) is sampled, and MTT terminating solution (isopropanol containing 4% Triton X-100 and 0.04N HCl) is added to the sample. The mixture is stirred to dissolve formed formazan. The absorbance at 540 nm of the solution is measured. Since the absorbance is proportional to the number of viable cells, the test agent concentration at which a half value of the absorbance is measured in a test using infected MT-4 cells represents EC50, whereas the test agent concentration at which a half value of the absorbance is measured in a test using non-infected MT-4 cells represents CC50. 2) MAGI Assay Using HeLa CD4/LTR-beta-Gal Cells • 1. HeLa CD4/LTR-beta-Gal cells are added to 96 wells such that the number of cells in each well is 10,000. After 12-24 hours, the culture medium is removed, and a diluted test agent (100 μl) is added. • 2. A variety of HIV strains (wild strain: WT, drug-resistant strain: MDR and M184V; each being equivalent to 50 TCID50) are added, and the cells are further cultured for 48 hours. • 3. The cells are fixed for five minutes using PBS supplemented with 1% formaldehyde and 0.2% glutaraldehyde. • 4. After the fixed cells are washed with PBS three times, the cells are stained with 0.4 mg/ml X-Gal for one hour, and the number of blue-stained cells of each well is counted under a transmission stereoscopic microscope. The test agent concentration at which blue-stained cells decrease to 50% in number represents EC50. <Results> Anti-human-immunodeficiency Virus (HIV) Activity and Cytotoxicity 1) MTT Method Using MT-4 Cells

[1] = MTT method using non-infected MT-4 cells (cytotoxicity); type: cell-based; conditions: human
Description: as §1, §2

HIV-1 wild strain (WT) = experiment: MAGI assay using HeLa CD4/LTR-beta-Gal cells, wild strain; type: cell-based; conditions: Human immunodeficiency virus 1, 48 hours, read-out: Anti-HIV-1wild activity (EC50)
Description: as §2

[2] = test system: HIV-1 MDR drug-resistant strain; experiment: MAGI assay using HeLa CD4/LTR-beta-Gal cells, drug-resistant strain MDR; type: cell-based; conditions: Human immunodeficiency virus 1, HeLa, 48 h, read-out: Anti-HIV-1MDR activity (EC50, μM)
Description: as §2

[3] = test system: HIV-1 M184V drug-resistant strain; experiment: MAGI assay using HeLa CD4/LTR-beta-Gal cells, drug-resistant strain M184V; type: cell-based; conditions: Human immunodeficiency virus 1, HeLa, 48 h, read-out: Anti-HIV-1M184V activity (EC50, μM)
Description: as §2

[4] = molecular target: T1, Calf-intestine-derived adenosine deaminase (Bos taurus, UniProt P56658); experiment: Stability against adenosine deaminase (HPLC); type: in vitro ADME; conditions: 0.01 unit enzyme, 0.5 mM compound, Tris-HCl pH 7.5, 25° C., FIG. 1
T1 construct: Calf-intestine-derived adenosine deaminase; from tissue; host or cells: calf intestine
T1 sequence (P56658 1-363): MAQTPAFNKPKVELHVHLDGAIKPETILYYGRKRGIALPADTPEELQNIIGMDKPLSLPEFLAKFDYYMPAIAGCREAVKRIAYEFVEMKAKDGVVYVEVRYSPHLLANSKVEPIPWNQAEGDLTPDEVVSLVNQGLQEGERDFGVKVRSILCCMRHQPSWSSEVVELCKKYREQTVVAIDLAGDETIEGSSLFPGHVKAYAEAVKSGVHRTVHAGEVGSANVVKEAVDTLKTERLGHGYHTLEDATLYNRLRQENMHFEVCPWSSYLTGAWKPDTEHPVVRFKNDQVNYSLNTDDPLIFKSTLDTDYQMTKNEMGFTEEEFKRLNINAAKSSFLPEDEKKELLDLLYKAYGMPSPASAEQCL
Description: <Test Methods> Stability of Compound 4 Against Adenosine Deaminase Calf-intestine-derived adenosine deaminase (0.01 unit) was added to 0.5 ml of 0.5-mM compound 4 (50 mM Tris-HCl buffered solution (pH 7.5)), and the mixture was incubated at 25° C. A 5-μl aliquot of the reaction mixture was removed every 15 minutes, followed by analysis by means of HPLC (high performance liquid chromatography). The peak area of a test drug at reaction time 0 was taken as 100%, and the curve was monitored over time. The HPLC analysis was performed under the following conditions. Column: YMC-Pack ODS-A (250×6.0 mm) Eluent: 15% MeCN-50 mM TEAA Flow rate: 1 mL/min. Temperature: 30° C. Detection: 260 nm

[5] = Stability under acidic conditions (HPLC); type: physicochemical; conditions: NaCl/hydrochloric acid test solution, 37° C.
Description: <Test Methods> Stability of Compound 4 Under Acidic Conditions
Compound 4 (2.9 mg) or 2′,3′-dideoxyadenosine (ddAdo: 2.4 mg) was dissolved in 10 ml of a 37° C. test solution (which had been prepared by adding 2.0 g of sodium chloride and 7.0 ml of hydrochloric acid into water to make a solution of 1,000 ml), followed by incubation at the same temperature (37° C.).
A 100-μl aliquot of the reaction mixture was removed therefrom and neutralized with aqueous 0.1-N sodium hydroxide solution, followed by analysis of 5 μl by means of HPLC. The HPLC analysis conditions are the same as those employed in Test Example 2.

ICR mice = experiment: In vivo acute toxicity test in ICR mice; conditions: for Survisors/Total: ICR mice, seven days
Description: <Test methods> In vivo Acute Toxicity Test of Compound 4
Groups of ICR mice (6 weeks of age, male), each group consisting of 8 mice, were given a test drug (Compound 4; dissolved or suspended in saline) via oral route or intravenous injection in amounts up to 100 mg/kg. The occurrence of death and body weight of each mouse were monitored for seven days.

non-infected MT-4 cells = experiment: MTT method using non-infected MT-4 cells (cytotoxicity); type: cell-based; conditions: non-infected MT-4 cells, MTT, five days
Description: as §1, §2

[6] = Human immunodeficiency virus 1, MT4, 120 h

C#C[C@]1(CO)O[C@@H](n2cnc3c(N)nc(F)nc32)C[C@@H]1O [Compound 4, 2′-deoxy-4′-C-ethynyl-2-fluoroadenosine]
EC50 (HIV-1 (IIIb strain); [6]): 0.068 nM | Selectivity Index (CC50/EC50) (HIV-1 (IIIb strain)): 110,000 | CC50 at 5 days [1]: 7500 nM | EC50 (HIV-1 wild strain (WT)): 0.2 nM | EC50 [2]: 0.000145 µM | EC50 [3]: 0.00311 µM | Deamination by adenosine deaminase [4]: not at all deaminated | Degradation under acidic conditions ([5]; FIG. 2): degraded very slowly | Survisors/Total (ICR mice; Intravenous, 1 mg/kg single dose): 8/8 | Survisors/Total (ICR mice; Intravenous, 3 mg/kg single dose): 8/8 | Survisors/Total (ICR mice; Intravenous, 10 mg/kg single dose): 8/8 | Survisors/Total (ICR mice; Intravenous, 30 mg/kg single dose): 8/8 | Survisors/Total (ICR mice; Intravenous, 100 mg/kg single dose): 8/8 | Survisors/Total (ICR mice; Oral, 1 mg/kg single dose): 8/8 | Survisors/Total (ICR mice; Oral, 3 mg/kg single dose): 8/8 | Survisors/Total (ICR mice; Oral, 10 mg/kg single dose): 8/8 | Survisors/Total (ICR mice; Oral, 30 mg/kg single dose): 8/8 | Survisors/Total (ICR mice; Oral, 100 mg/kg single dose): 8/8 | Acute toxicity in mice (conclusion) (ICR mice; mouse, in vivo): does not exhibit acute toxicity | Survival of mice (ICR mice; mouse, in vivo): survived | Weight loss and pathological symptoms such as diarrhea (ICR mice; mouse, in vivo): not observed

C#C[C@]1(CO)O[C@@H](n2cnc3c(N)nc(Cl)nc32)C[C@@H]1O [Compound 9, 2-chloro-2′-deoxy-4′-C-ethynyladenosine]
EC50 (HIV-1 wild strain (WT)): 1.9 nM | EC50 [2]: 0.0084 µM | EC50 [3]: 0.01 µM

C#C[C@]1(CO[PH](=O)O)O[C@@H](n2cnc3c(N)nc(F)nc32)C[C@H]1O [Compound 10, 2′-deoxy-4′-C-ethynyl-2-fluoroadenosine 5′-H-phosphonate]
EC50 (HIV-1 wild strain (WT)): 3.4 nM | EC50 [2]: 0.003 µM | EC50 [3]: 0.062 µM

C#C[C@]1(CO)O[C@@H](n2cnc3c(N)ncnc32)C[C@@H]1O [EdAdo, 2′-deoxy-4′-C-ethynyladenosine, reference compound]
EC50 (HIV-1 (IIIb strain); [6]): 9.8 nM | Selectivity Index (CC50/EC50) (HIV-1 (IIIb strain)): 1,630 | CC50 at 5 days [1]: 16000 nM | EC50 (HIV-1 wild strain (WT)): 8 nM | EC50 [2]: 0.0062 µM | EC50 [3]: 0.047 µM | Deamination by adenosine deaminase [4]: deaminated

Nc1ncnc2c1ncn2[C@H]1CC[C@@H](CO)O1 [ddAdo, 2′,3′-dideoxyadenosine, reference compound]
Fraction degraded under acidic conditions ([5]; in about five minutes, FIG. 3): About 98%

N#C[C@]1(CO)O[C@@H](n2cnc3c(N)nc(F)nc32)C[C@@H]1O [Compound 8, 4′-C-cyano-2′-deoxy-2-fluoroadenosine]
EC50 (HIV-1 wild strain (WT)): 120 nM | EC50 [2]: 0.95 µM | EC50 [3]: 4.8 µM

C#C[C@]1(CO)O[C@@H](n2cnc3c(N)nc(N)nc32)C[C@@H]1O [EdDAP, 9-(4-C-ethynyl-2-deoxy-ribopentofuranosyl)-2,6-diaminopurine]
EC50 (HIV-1 (IIIb strain)): 0.34 nM | CC50 (non-infected MT-4 cells): 900 nM

C#C[C@@]1(CO)C=C[C@H](n2cnc3c(N)nc(F)nc32)O1 [Compound 13, 2′,3′-didehydro-2′,3′-dideoxy-4′-C-ethynyl-2-fluoroadenosine]
EC50 (HIV-1 wild strain (WT)): 800 nM | EC50 [2]: 0.15 µM | EC50 [3]: 1.8 µM
